Data on 17 molecules can be found in patent US9233964B2, “Sulfamide piperazine derivatives as protein tyrosine kinase inhibitors and pharmaceutical use therof” (LEO PHARMA A/S, priority 2011, dated 2016).

Structures are written as SMILES. pEC50: −log10 of the molar value. A value given as a limit tells only on which side of the number the result lay.

What all share (type): biochemical
One assay has as its target T1, JAK1 (Homo sapiens, UniProt P23458).
T1 construct: JAK1 (aa 850-1154) and TYK2 (aa 871-1187) are expressed with an N-terminally fused GST-tag; GST (N); purchased Carna Biosciences, Inc; host or cells: baculovirus expression system
Kind of assay: JAK kinase assay (HTRF, phosphorylation of synthetic peptide), JAK1. The conditions noted are these: catalytic domain, ATP at Km (7 μM); read-out: JAK1 kinase inhibitory activity (EC50). In outline: (§1)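 Catalytic-domain human JAK1 (GST-tagged, aa 850-1154) or His-tagged JAK2, baculovirus-expressed, phosphorylated 1 µM biotinylated TK peptide at Km ATP (JAK1 7 µM, 10 mM MgCl2, 50 nM SEB; JAK2 4 µM, 5 mM MgCl2) in pH 7.0 Hepes, 20-30 min RT. EDTA stop; overnight streptavidin-XL665/cryptate HTRF read.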

For the next assay, the target named is T2, JAK2 (Homo sapiens, UniProt O60674).
T2 construct: All four purified enzymes contain only the catalytic domain; His (N); purchased Carna Biosciences, Inc; host or cells: baculovirus expression system
As to the kind of experiment: JAK kinase assay (HTRF, phosphorylation of synthetic peptide), JAK2. The conditions noted are these: catalytic domain, ATP at Km (4 μM); read-out: JAK2 kinase inhibitory activity (EC50). The gist of the method: as §1
A general note: Time-resolved FRET reads energy transfer from a long-lived donor to a nearby acceptor.

The next assay deals with T3, JAK3 (Homo sapiens, UniProt P52333).
T3 construct: All four purified enzymes contain only the catalytic domain; His (N); purchased Carna Biosciences, Inc; host or cells: baculovirus expression system
As to the kind of experiment: JAK kinase assay (HTRF, phosphorylation of synthetic peptide), JAK3. The conditions noted are these: catalytic domain, ATP at Km (2 μM); read-out: JAK3 kinase inhibitory activity (EC50).

A further assay addresses T4, TYK2 (Homo sapiens, UniProt P29597).
T4 construct: JAK1 (aa 850-1154) and TYK2 (aa 871-1187) are expressed with an N-terminally fused GST-tag; GST (N); purchased Carna Biosciences, Inc; host or cells: baculovirus expression system
T4 sequence (P29597 871-1187): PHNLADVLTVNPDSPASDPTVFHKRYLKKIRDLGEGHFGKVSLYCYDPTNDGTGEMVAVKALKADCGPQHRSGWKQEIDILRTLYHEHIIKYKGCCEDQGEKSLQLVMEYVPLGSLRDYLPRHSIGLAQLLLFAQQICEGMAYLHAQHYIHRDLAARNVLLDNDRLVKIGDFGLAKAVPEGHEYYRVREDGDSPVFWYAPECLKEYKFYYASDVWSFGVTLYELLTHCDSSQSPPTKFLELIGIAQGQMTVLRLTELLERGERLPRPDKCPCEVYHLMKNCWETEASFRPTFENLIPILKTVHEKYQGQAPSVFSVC
Kind of assay: JAK kinase assay (HTRF, phosphorylation of synthetic peptide), TYK2. The conditions noted are these: catalytic domain, ATP at Km (13 μM); read-out: TYK2 kinase inhibitory activity (EC50). The gist of the method: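 1 µM biotinylated TK peptide at Km ATP in pH 7.0 Hepes, 20-30 min RT. EDTA stop; overnight streptavidin-XL665/cryptate HTRF read.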

T2 sequence (O60674 849-1124 limits assumed): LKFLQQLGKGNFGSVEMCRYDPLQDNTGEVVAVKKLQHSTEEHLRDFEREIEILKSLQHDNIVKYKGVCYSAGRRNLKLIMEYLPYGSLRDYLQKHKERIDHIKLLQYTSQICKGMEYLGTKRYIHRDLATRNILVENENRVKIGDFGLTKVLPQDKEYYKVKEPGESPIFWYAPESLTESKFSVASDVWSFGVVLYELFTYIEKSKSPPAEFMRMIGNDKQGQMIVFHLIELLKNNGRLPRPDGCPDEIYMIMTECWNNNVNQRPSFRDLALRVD
T1 sequence (P23458 850-1154): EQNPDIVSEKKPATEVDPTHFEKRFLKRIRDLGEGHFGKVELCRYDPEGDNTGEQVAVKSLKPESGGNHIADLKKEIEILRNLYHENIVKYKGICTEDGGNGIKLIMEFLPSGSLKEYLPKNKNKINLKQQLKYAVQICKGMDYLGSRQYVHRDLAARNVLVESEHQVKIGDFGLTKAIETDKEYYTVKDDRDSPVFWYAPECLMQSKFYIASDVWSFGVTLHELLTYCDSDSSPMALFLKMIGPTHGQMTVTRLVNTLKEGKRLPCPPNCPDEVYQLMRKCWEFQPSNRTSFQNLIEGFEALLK
T3 sequence (P52333 822-1111 limits assumed): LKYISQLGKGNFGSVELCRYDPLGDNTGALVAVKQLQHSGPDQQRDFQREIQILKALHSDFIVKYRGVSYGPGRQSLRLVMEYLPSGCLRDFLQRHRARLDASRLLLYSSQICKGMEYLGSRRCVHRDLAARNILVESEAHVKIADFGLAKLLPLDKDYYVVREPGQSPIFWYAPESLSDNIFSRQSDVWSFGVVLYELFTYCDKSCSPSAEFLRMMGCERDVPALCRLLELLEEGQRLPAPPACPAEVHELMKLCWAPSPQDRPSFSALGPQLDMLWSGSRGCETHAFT

Consider `CN(CC1CC1(F)F)S(=O)(=O)N1CCN(c2ncnc3[nH]ccc23)CC12CC2` (centres unmarked) [Example 86, N-[(2,2-difluorocyclopropyl)methyl]-N-methyl-5-(7H-pyrrolo[2,3-d]pyrimidin-4-yl)-5,8-diazaspiro[2.5]octane-8-sulfonamide], for which the pEC50 at JAK1, at JAK2, on JAK3 and on TYK2 was > 7.00 in each case.
`C=C1CCC(CN(C)S(=O)(=O)N2CCN(c3ncnc4[nH]ccc34)CC23CC3)CC1` [Example 87, N-methyl-N-[(4-methylenecyclohexyl)methyl]-5-(7H-pyrrolo[2,3-d]pyrimidin-4-yl)-5,8-diazaspiro[2.5]octane-8-sulfonamide]: the pEC50 (usually the EC50 on a negative log10 scale, so that one unit is a factor of ten) on JAK1 was > 7.00; on JAK2 it was > 7.00; on JAK3, > 7.00; at TYK2, 6.30 to 7.00.
In the case of `CN(CC1CC(=O)C1)S(=O)(=O)N1CCN(c2ncnc3[nH]ccc23)CC12CC2` [Example 88, N-methyl-N-[(3-oxocyclobutyl)methyl]-5-(7H-pyrrolo[2,3-d]pyrimidin-4-yl)-5,8-diazaspiro[2.5]octane-8-sulfonamide], the pEC50 at JAK1 is > 7.00; at JAK2 it was > 7.00; on JAK3, 6.30 to 7.00; at TYK2, 6.30 to 7.00.
On to `CN(CC1CCOCC1)S(=O)(=O)N1CCN(c2ncnc3[nH]ccc23)CC12CC2` [Example 89, N-methyl-5-(7H-pyrrolo[2,3-d]pyrimidin-4-yl)-N-(tetrahydropyran-4-ylmethyl)-5,8-diazaspiro[2.5]octane-8-sulfonamide], for which the negative logarithm of the EC50 (pEC50) on JAK1 was > 7.00; on JAK2 it was > 7.00; on JAK3, 6.30 to 7.00; on TYK2, 6.30 to 7.00.
As for `CN(Cc1cccc(S(N)(=O)=O)c1)S(=O)(=O)N1CCN(c2ncnc3[nH]ccc23)CC12CC2` [Example 90, N-methyl-5-(7H-pyrrolo[2,3-d]pyrimidin-4-yl)-N-[(3-sulfamoylphenyl)methyl]-5,8-diazaspiro[2.5]octane-8-sulfonamide], the negative-log EC50 (pEC50) at JAK1, at JAK2, on JAK3 and on TYK2 was > 7.00 each time.
On to `CN(Cc1ccc(S(N)(=O)=O)cc1)S(=O)(=O)N1CCN(c2ncnc3[nH]ccc23)CC12CC2` [Example 91, N-methyl-5-(7H-pyrrolo[2,3-d]pyrimidin-4-yl)-N-[(4-sulfamoylphenyl)methyl]-5,8-diazaspiro[2.5]octane-8-sulfonamide], for which the pEC50 at JAK1, at JAK2, at JAK3 and at TYK2 was > 7.00 in each case.
As for `CC(C)N(C)S(=O)(=O)N1CCN(c2ncnc3[nH]ccc23)CC12CC2` [Example 94, N-isopropyl-N-methyl-5-(7H-pyrrolo[2,3-d]pyrimidin-4-yl)-5,8-diazaspiro[2.5]octane-8-sulfonamide], the pEC50 was > 7.00 on JAK1, > 7.00 at JAK2, 6.30 to 7.00 at JAK3 and < 6.30 on TYK2.
`CCN(C(C)C)S(=O)(=O)N1CCN(c2ncnc3[nH]ccc23)CC12CC2` [Example 95, N-ethyl-N-isopropyl-5-(7H-pyrrolo[2,3-d]pyrimidin-4-yl)-5,8-diazaspiro[2.5]octane-8-sulfonamide]: the pEC50 was 6.30 to 7.00 on JAK1, > 7.00 at JAK2, 6.30 to 7.00 at JAK3 and < 6.30 at TYK2.
As to `CC(C)N(CC#N)S(=O)(=O)N1CCN(c2ncnc3[nH]ccc23)CC12CC2` [Example 96, N-(cyanomethyl)-N-isopropyl-5-(7H-pyrrolo[2,3-d]pyrimidin-4-yl)-5,8-diazaspiro[2.5]octane-8-sulfonamide], the pEC50 on JAK1 was > 7.00; at JAK2, > 7.00; at JAK3, 6.30 to 7.00; at TYK2, < 6.30.
Consider `CC(C)N(CCO)S(=O)(=O)N1CCN(c2ncnc3[nH]ccc23)CC12CC2` [Example 97, N-(2-hydroxyethyl)-N-isopropyl-5-(7H-pyrrolo[2,3-d]pyrimidin-4-yl)-5,8-diazaspiro[2.5]octane-8-sulfonamide], for which the negative logarithm of the EC50 (pEC50) at JAK1 was > 7.00; on JAK2, > 7.00; at JAK3 it was 6.30 to 7.00; on TYK2 it was < 6.30.
`CN(C1CCC1)S(=O)(=O)N1CCN(c2ncnc3[nH]ccc23)CC12CC2` [Example 98, N-cyclobutyl-N-methyl-5-(7H-pyrrolo[2,3-d]pyrimidin-4-yl)-5,8-diazaspiro[2.5]octane-8-sulfonamide]: the negative-log EC50 (pEC50) at JAK1 is > 7.00; at JAK2, > 7.00; on JAK3, 6.30 to 7.00; on TYK2, 6.30 to 7.00.
Turning to `CCN(C1CCC1)S(=O)(=O)N1CCN(c2ncnc3[nH]ccc23)CC12CC2` [Example 99, N-cyclobutyl-N-ethyl-5-(7H-pyrrolo[2,3-d]pyrimidin-4-yl)-5,8-diazaspiro[2.5]octane-8-sulfonamide], the pEC50 at JAK1 was > 7.00; on JAK2, > 7.00; on JAK3 it was 6.30 to 7.00; on TYK2 it was > 7.00.
For `N#CCN(C1CCC1)S(=O)(=O)N1CCN(c2ncnc3[nH]ccc23)CC12CC2` [Example 100, N-(cyanomethyl)-N-cyclobutyl-5-(7H-pyrrolo[2,3-d]pyrimidin-4-yl)-5,8-diazaspiro[2.5]octane-8-sulfonamide], the pEC50 on JAK1, at JAK2, on JAK3 and at TYK2 was > 7.00 in each case.
`O=S(=O)(N(CCO)C1CCC1)N1CCN(c2ncnc3[nH]ccc23)CC12CC2` [Example 101, N-cyclobutyl-N-(2-hydroxyethyl)-5-(7H-pyrrolo[2,3-d]pyrimidin-4-yl)-5,8-diazaspiro[2.5]octane-8-sulfonamide]: the negative-log EC50 (pEC50) on JAK1, at JAK2, at JAK3 and at TYK2 was > 7.00 each time.
As for `N#CCCCN(C1CCC1)S(=O)(=O)N1CCN(c2ncnc3[nH]ccc23)CC12CC2` [Example 102, N-(3-cyanopropyl)-N-cyclobutyl-5-(7H-pyrrolo[2,3-d]pyrimidin-4-yl)-5,8-diazaspiro[2.5]octane-8-sulfonamide], the negative logarithm of the EC50 (pEC50) at JAK1 was > 7.00; at JAK2, > 7.00; on JAK3, > 7.00; at TYK2, 6.30 to 7.00.
In the case of `COCCN(C1CCC1)S(=O)(=O)N1CCN(c2ncnc3[nH]ccc23)CC12CC2` [Example 103, N-cyclobutyl-N-(2-methoxyethyl)-5-(7H-pyrrolo[2,3-d]pyrimidin-4-yl)-5,8-diazaspiro[2.5]octane-8-sulfonamide], the negative-log EC50 (pEC50) at JAK1 is > 7.00; at JAK2, > 7.00; on JAK3, 6.30 to 7.00; at TYK2 it was 6.30 to 7.00.
`O=S(=O)(N(CCn1ccnc1)C1CCC1)N1CCN(c2ncnc3[nH]ccc23)CC12CC2` [Example 104, N-cyclobutyl-N-(2-imidazol-1-ylethyl)-5-(7H-pyrrolo[2,3-d]pyrimidin-4-yl)-5,8-diazaspiro[2.5]octane-8-sulfonamide]: the negative-log EC50 (pEC50) on JAK1 is > 7.00; at JAK2 it was > 7.00; at JAK3, 6.30 to 7.00; on TYK2, 6.30 to 7.00.
